Results from ChEMBL document CHEMBL5346946, “Targeting Arginine Methyltransferase PRMT5 for Cancer Therapy: Updated Progress and Novel Strategies” (J Med Chem, 2023).
Values belong to the compound of their own block, whether it stands above or below them.

How the values were obtained:
MDA-MB-468 = assay: Antiproliferative activity against human MDA-MB-468 assessed as cell growth inhibition measured after 7 days by CCK-8 assay; assay type: functional, cell-based; conditions: MDA-MB-468, 168 h
Z-138 [1] = assay: Antiproliferative activity against human Z138 cells assessed as cell growth inhibition measured after 7 days by CCK-8 assay; assay type: functional, cell-based; conditions: Z-138, 168 h
[2] = biological target: Voltage-gated inwardly rectifying potassium channel KCNH2 (Homo sapiens, UniProt Q12809); assay: Inhibition of hERG potassium channel in human HEK293 cells by manual patch clamp assay; assay type: toxicity, cell-based
NCI-H358 = assay: Antiproliferative activity against human NCI-H358 assessed as cell growth inhibition measured after 7 days by CCK-8 assay; assay type: functional, cell-based; conditions: NCI-H358, 168 h
U-87 MG = assay: Anti-proliferative activity against human U-87 MG cells assessed as cell growth inhibition incubated for 3 days by CCK-8 assay; assay type: functional, cell-based, U-87MG ATCC; conditions: 72 h
PRMT5/MEP50 complex [3] = biological target: T1, PRMT5/MEP50 complex (Homo sapiens, UniProt O14744); assay: Binding affinity to PRMT5/MEP50 (unknown origin) using histone H4 peptide assessed as inhibition constant preincubated for 24 hrs followed by substrate addition and measured for 2 hrs in the presence of SAM by MTase-Glo Methyl Transferase Assay; assay type: protein-complex assay
[4] = Anti-proliferative activity against human HCT116-MTAP null cells assessed as cell growth inhibition incubated for 6 days by CellTiter-Glo Luminescent Cell Viability Assay; assay type: functional, cell-based; conditions: 144 h
[5] = Anti-proliferative activity against human HCT116-MTAP null cells assessed as cell growth inhibition incubated overnight by CellTiter-Glo luminescent assay; assay type: functional, cell-based
HCT-116 = assay: Anti-proliferative activity against wild type human HCT-116 cells assessed as cell growth inhibition incubated overnight by CellTiter-Glo luminescent assay; assay type: functional, cell-based
Z-138 [6] = assay: Antitumor activity against human Z138 cells xenografted in CB17-SCID mouse at 50 mg/kg, po QD for 3 weeks relative to control; assay type: functional; conditions: Z-138, 504 h, read-out: TGI
[7] = biological target: T2, Protein arginine N-methyltransferase 5 (Homo sapiens, UniProt O14744); assay: Inhibition of PRMT5 in human Z138 cells assessed as decrease in sDMA modification incubated for 2 days by fluorescence based assay; assay type: cell-based
Z-138 [8] = assay: Anti-proliferative activity against human Z138 cells assessed as cell growth inhibition incubated for 8 days by Cell-Titer Glo assay; assay type: functional, cell-based; conditions: Z-138, 192 h
PRMT5/MEP50 complex [9] = biological target: T1, PRMT5/MEP50 complex; assay: Inhibition of PRMT5/MEP50 (unknown origin) using histone H4 peptide as substrate preincubated for 30 mins followed by substrate addition and measured for 60 mins by AlphaScreen analysis; assay type: protein-complex assay
[10] = Oral bioavailability in CB17-SCID mouse at 10 mg/kg incubated for 24 hrs by LC-MS/MS analysis; assay type: ADME, organism-based; conditions: in vivo
[11] = Volume of distribution at steady state in rat at 2 mg/kg, iv; assay type: ADME, organism-based; conditions: in vivo, read-out: Vdss
A-427 [12] = assay: Antitumor activity in human A-427 harboring RBM10 I348N mutant xenografted in mouse model assessed as tumor growth inhibition at 30 mg/kg administered once daily and measured after 44 days relative to control; assay type: functional; conditions: A-427, 1056 h, time 44 day, read-out: TGI
A-427 [13] = assay: Antitumor activity in human A-427 harboring RBM10 I348N mutant xenografted in mouse model assessed as tumor growth inhibition at 10 mg/kg administered once daily and measured after 44 days relative to control; assay type: functional; conditions: A-427, 1056 h, time 44 day, read-out: TGI
[14] = Oral bioavailability in rat at 10 mg/kg; assay type: ADME, organism-based; conditions: in vivo
[15] = In vivo inhibition of PMRT5 in mouse xenografted with human A427 cells assessed as reduction in sDMA level by ELISA (reference value: 66.4%); assay type: functional, A-427
[16] = biological target: T2, Protein arginine N-methyltransferase 5; assay: Inhibition of PRMT5 in human A427 cells assessed as reduction in sDMA level incubated for 72 hrs by liquid scintillation analysis
[17] = Clearance in rat; assay type: ADME; conditions: in vivo
A-427 [18] = assay: Antitumor activity in human A-427 harboring RBM10 I348N mutant xenografted in mouse model assessed as tumor growth inhibition at 3 mg/kg administered once daily and measured after 44 days relative to control; assay type: functional; conditions: A-427, 1056 h, time 44 day, read-out: TGI
PRMT5/MEP50 complex [19] = biological target: T1, PRMT5/MEP50 complex; assay: Binding affinity to N-terminal 6xHis-tagged full length human PRMT5/MEP50 expressed in sf21 cells using S-Adenosyl-L-methionine as substrate assessed as dissociation constant incubated for 25 to 60 mins by liquid scintillation analysis
[20] = biological target: T2, Protein arginine N-methyltransferase 5; assay: Inhibition of PRMT5 in human U-87 MG cells assessed as suppression of sDMA level incubated for 3 days by western blot analysis; assay type: cell-based
Z-138 [21] = assay: Antitumor activity against human Z138 cells xenografted in mouse as tumor growth inhibition at 5 mg/kg, po administered twice daily relative to control; assay type: functional; conditions: read-out: TGI
Z-138 [22] = assay: Antitumor activity against human Z138 cells xenografted in mouse as tumor growth inhibition at 15 mg/kg, po administered twice daily relative to control; assay type: functional; conditions: read-out: TGI
[23] = biological target: T2, Protein arginine N-methyltransferase 5; assay: Inhibition of PRMT5 in human Z138 cells assessed as suppression of sDMA level; assay type: cell-based
Z-138 [24] = assay: Antitumor activity against human Z138 cells xenografted in mouse as tumor growth inhibition at 1.5 mg/kg, po administered twice daily relative to control; assay type: functional; conditions: read-out: TGI
[25] = biological target: T2, Protein arginine N-methyltransferase 5; assay: Inhibition of PRMT5 (unknown origin)
Z-138 [26] = assay: Antiproliferative activity against human Z138 cells; assay type: functional, cell-based
[27] = biological target: PRMT5/MEP50 complex (Homo sapiens) (UniProt O14744+Q9BQA1); assay: Binding affinity to Full-length human PRMT5/human MEP50 assessed as association constant by SPR analysis; assay type: protein-complex assay
NCI-H1048 [28] = assay: Antitumor activity against human NCI-H1048 cells xenografted in mouse assessed as tumor growth inhibition at 10 mg/kg, po administered daily for 28 days with two cycles of 7 days of treatment followed by 7 days without treatment relative to control; assay type: functional; conditions: NCI-H1048, 672 h, time 28 day, read-out: TGI
NCI-H1048 [29] = assay: Antitumor activity against human NCI-H1048 cells xenografted in mouse assessed as tumor growth inhibition at 10 mg/kg, po administered daily for 28 days relative to control; assay type: functional; conditions: NCI-H1048, 672 h, time 28 day, read-out: TGI
NCI-H1048 [30] = assay: Antiproliferative activity against human NCI-H1048 cells assessed as cell growth inhibition incubated for 6 days by MTT assay; assay type: functional; conditions: NCI-H1048, 144 h, time 6 day
[31] = biological target: T2, Protein arginine N-methyltransferase 5; assay: Inhibition of PRMT5 in human NCI-H1048 cells assessed as reduction in dimethylation of SmD1/3 at 1 nM incubated for 48 hrs relative to control; assay type: cell-based
[32] = biological target: T2, Protein arginine N-methyltransferase 5; assay: Inhibition of PRMT5 in human NCI-H1048 cells assessed as reduction in dimethylation of SmD1/3 at 10 nM incubated for 48 hrs relative to control; assay type: cell-based

T2 sequence (O14744 whole entry): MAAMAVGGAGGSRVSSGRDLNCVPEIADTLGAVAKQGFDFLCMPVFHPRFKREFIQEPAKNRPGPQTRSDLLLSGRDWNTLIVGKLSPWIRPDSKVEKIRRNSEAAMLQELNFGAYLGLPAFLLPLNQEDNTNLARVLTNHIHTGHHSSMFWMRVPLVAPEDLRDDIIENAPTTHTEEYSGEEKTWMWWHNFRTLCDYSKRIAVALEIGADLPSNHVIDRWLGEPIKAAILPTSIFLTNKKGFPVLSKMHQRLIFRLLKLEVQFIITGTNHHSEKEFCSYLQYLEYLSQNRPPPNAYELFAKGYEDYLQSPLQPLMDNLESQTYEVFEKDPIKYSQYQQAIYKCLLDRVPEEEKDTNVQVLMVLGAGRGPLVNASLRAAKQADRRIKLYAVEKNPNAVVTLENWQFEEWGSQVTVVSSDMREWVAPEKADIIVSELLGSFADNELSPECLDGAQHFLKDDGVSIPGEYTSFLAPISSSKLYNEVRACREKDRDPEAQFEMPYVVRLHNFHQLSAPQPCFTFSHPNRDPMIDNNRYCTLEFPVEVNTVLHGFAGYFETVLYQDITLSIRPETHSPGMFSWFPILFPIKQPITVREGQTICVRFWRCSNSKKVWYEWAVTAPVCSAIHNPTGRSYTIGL
T1 sequence (O14744 whole entry): as above
T1 sequence (Q9BQA1 whole entry, further chain): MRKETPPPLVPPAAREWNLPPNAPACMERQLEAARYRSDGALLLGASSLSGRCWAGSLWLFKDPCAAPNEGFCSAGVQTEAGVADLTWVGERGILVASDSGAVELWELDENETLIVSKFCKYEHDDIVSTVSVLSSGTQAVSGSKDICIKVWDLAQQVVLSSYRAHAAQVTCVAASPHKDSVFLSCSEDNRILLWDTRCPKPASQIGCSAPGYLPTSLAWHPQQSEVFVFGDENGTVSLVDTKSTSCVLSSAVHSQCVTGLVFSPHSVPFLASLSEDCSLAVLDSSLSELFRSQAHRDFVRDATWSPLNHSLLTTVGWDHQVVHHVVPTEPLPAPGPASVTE
Voltage-gated inwardly rectifying potassium channel KCNH2, sequence (Q12809 whole entry): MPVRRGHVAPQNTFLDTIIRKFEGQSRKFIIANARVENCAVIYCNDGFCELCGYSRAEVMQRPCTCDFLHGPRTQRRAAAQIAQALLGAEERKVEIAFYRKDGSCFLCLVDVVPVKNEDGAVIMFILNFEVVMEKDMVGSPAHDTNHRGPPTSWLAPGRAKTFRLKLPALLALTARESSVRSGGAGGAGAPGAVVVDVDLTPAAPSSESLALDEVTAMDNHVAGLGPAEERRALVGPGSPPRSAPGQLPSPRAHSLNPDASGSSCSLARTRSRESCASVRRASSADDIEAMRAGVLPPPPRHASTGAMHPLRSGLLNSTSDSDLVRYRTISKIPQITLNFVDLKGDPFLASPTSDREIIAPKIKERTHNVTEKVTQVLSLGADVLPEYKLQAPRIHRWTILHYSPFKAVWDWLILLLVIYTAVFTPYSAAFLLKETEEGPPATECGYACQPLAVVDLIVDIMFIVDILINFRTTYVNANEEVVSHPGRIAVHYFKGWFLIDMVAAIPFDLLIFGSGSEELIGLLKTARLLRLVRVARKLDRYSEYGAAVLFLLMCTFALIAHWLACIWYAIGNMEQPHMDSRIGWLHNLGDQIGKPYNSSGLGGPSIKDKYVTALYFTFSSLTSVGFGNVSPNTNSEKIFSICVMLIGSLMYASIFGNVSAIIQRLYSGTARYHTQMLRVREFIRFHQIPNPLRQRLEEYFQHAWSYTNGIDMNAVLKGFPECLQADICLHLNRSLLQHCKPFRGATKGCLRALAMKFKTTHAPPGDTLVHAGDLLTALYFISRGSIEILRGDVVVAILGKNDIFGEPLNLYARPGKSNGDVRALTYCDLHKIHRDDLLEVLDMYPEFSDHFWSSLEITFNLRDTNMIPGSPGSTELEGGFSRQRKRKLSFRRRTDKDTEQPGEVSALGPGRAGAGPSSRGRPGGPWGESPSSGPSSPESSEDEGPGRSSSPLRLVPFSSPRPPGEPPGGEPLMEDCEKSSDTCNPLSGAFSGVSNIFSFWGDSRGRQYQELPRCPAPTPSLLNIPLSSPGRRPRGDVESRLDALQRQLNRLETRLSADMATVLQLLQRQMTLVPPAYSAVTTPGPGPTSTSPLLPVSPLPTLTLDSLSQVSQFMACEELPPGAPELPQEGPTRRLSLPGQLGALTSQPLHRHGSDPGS

SMILES: CC(=O)N1CC2(CC(Nc3cc4c(cn3)C3(CC3)CN(C[C@H](O)CN3CCc5ccccc5C3)C4=O)C2)C1
IC50 (MDA-MB-468): 7.4 nM
IC50 (Z-138 [1]): 2.2 nM
IC50 [2]: 15100 nM
IC50 (NCI-H358): 5 nM

SMILES: Cc1cc2cc(C(=O)N(Cc3ccc(C(F)(F)F)cn3)[C@@H]3CCCc4[nH]ncc43)ccc2nc1N
Ki (PRMT5/MEP50 complex [3]): 0.05 nM
IC50 [4]: 5 nM
IC50 [5]: 10 nM
IC50 (HCT-116): 142 nM

SMILES: CC1(C)CN(C[C@@H](O)[C@@H]2Cc3ccccc3CN2)C(=O)c2ccc(C(=O)N3CCC4(CC3)CC4)cc21
inhibition in vivo at 50 mg/kg (Z-138 [6]): 93.2%
IC50 [7]: 0.8 nM
IC50 (Z-138 [8]): 0.3 nM
IC50 (PRMT5/MEP50 complex [9]): 2.8 nM
bioavailability [10]: 46.2%

SMILES: Cc1ncnc2c1ccn2[C@@H]1C[C@H](Oc2cc(C(F)F)c(F)c3c2CNCC3)[C@@H](O)[C@H]1O
Vd [11]: 3.8 L/kg
inhibition in vivo at 30 mg/kg (A-427 [12]): 101%
inhibition in vivo at 10 mg/kg (A-427 [13]): 74.9%
bioavailability [14]: 40%
inhibition (INH) [15]: 79.8%
IC50 [16]: 1.1 nM
clearance [17]: 40 mL/min/kg
inhibition in vivo at 3 mg/kg (A-427 [18]): 52.1%
Kd (PRMT5/MEP50 complex [19]): 0.0114 nM

SMILES: Nc1ncnc2c1ccn2[C@@H]1O[C@H]([C@@H]2OCc3cc(Cl)ccc32)[C@@H](O)[C@H]1O
IC50 [20]: 120 nM

SMILES: CC(=O)N1CCC(Nc2cc3c(cn2)C2(CC2)CN(C[C@H](O)CN2CCc4ccccc4C2)C3=O)CC1
IC50 [2]: 5200 nM

The next lines start with results.

IC50 (U-87 MG): 2.6 nM
SMILES: Nc1ncnc2c1ccn2[C@@H]1O[C@H]([C@@H]2OCCc3cc(Cl)ccc32)[C@@H](O)[C@H]1O

IC50 [23]: 1.4 nM
IC50 [25]: 4.2 nM
SMILES: CCN1CCN(C[C@@H](O)[C@@H]2Cc3ccccc3CN2)C(=O)c2ccc(C(=O)N3CCC4(CC3)CC(OC)C4)cc21
inhibition in vivo at 5 mg/kg (Z-138 [21]): 47.8%
inhibition in vivo at 15 mg/kg (Z-138 [22]): 112%
inhibition in vivo at 1.5 mg/kg (Z-138 [24]): 36%
IC50 (Z-138 [26]): 2.2 nM

Ka [27]: 6.3 10^5/M/s
GI50 (NCI-H1048 [30]): 1.3 nM
inhibition [31]: > 50%
inhibition [32]: 80%
SMILES: Nc1nc2cc(CC[C@H]3C[C@@H](n4ccc5c(N)ncnc54)[C@H](O)[C@@H]3O)ccc2cc1Br [ONAMETOSTAT]
inhibition in vivo at 10 mg/kg (NCI-H1048 [28]): 67%
inhibition in vivo at 10 mg/kg (NCI-H1048 [29]): 77%

Kd (PRMT5/MEP50 complex [19]): 0.241 nM
SMILES: Nc1ncnc2c1ccn2[C@@H]1O[C@H]([C@H](O)c2ccc(Cl)c(F)c2)[C@@H](O)[C@H]1O
